# According to patent US9176124B2, “Method for measurement of equol in biological sample by immunoassay, kit for the measurement, and method for determination of equol production ability of subject” (OTSUKA PHARMACEUTICAL CO., LTD., priority 2009, dated 2015):
# Assays:
# [1] = tested on: anti-equol rabbit antiserum (primary antibody); test: Cross-reactivity of the primary antibody by competitive ELISA (Test Example 2); format: binding; conditions: (IC20 of S-equol/IC20 of each isoflavone, etc.)×100, S-equol assumed 100%, horseradish peroxidase-labeled S-equol as labeled antigen, samples in 100% charcoal-treated human serum
# Excerpt: The above cross-reactivity can be explained as follows. Specifically, the above cross-reactivity indicates a ratio (%) of the concentration (IC20) of unlabeled S-equol at which the binding reaction of labeled S-equol to the anti-equol antibody can be inhibited by 20%, to the concentration (IC20) of each isoflavone and the like at which the binding reaction of labeled S-equol to the anti-equol antibody can be inhibited by 20%. More specifically, in the competitive reaction between labeled S-equol and unlabeled S-equol, the concentration of unlabeled S-equol at which the binding of labeled S-equol to the antibody is 80 is determined, assuming that the binding of labeled S-equol alone to the antibody is 100. Similarly, each unlabeled isoflavone and the like are competitively reacted with labeled S-equol, and the concentration of each isoflavone and the like at which binding of labeled S-equol to the antibody is 80 is determined.
# The thus-determined ratio (expressed in percentage) between the concentration (IC20) of the unlabeled S-equol and the concentration (IC20) of each isoflavone and the like is referred to as the cross-reactivity. This is represented by the following formula: Cross-reactivity (%)=(IC20 of S-equol/IC20 of each isoflavone, etc.)×100
# Herein, the cross-reactivity rate is determined by competitive ELISA, using S-equol as the standard antigen used for the preparation of a standard curve, as well as the labeled antigen that competes with equol in a biological sample.
# In this Test Example, the cross-reactivity of the primary antibody was examined for the case where competitive ELISA was employed and S-equol was used as both the standard antigen and the labeled antigen. Specifically, the cross-reactivity was examined as follows.
# Each of the isoflavones and the like shown in the later-described Table 4 was dissolved in 100% charcoal-treated human serum, and the resulting solution was used as a sample.
# An anti-equol rabbit antiserum was used as the primary antibody, as in Example 1. The antiserum was suitably diluted with the later-described antiserum dilution buffer, and used in the test.
# A goat anti-rabbit IgG antibody was used as a secondary antibody, as in Example 1. The antibody was immobilized to a solid phase as in Example 1, thus preparing a plate containing immobilized goat anti-rabbit IgG antibody.
# Horseradish peroxidase-labeled S-equol was used as a labeled antigen, as in Example 1.
# S-equol was used as a standard antigen, as in Example 1. Note that a standard equol solution in the forth of a mixed solution of S-equol (0, 30, 90, 270, or 810 ng/mL) and 100% charcoal-treated human serum was used.
# A concentration dilution series was prepared for each of the isoflavones and the like, and for unlabeled S-equol. The adsorption by each of the isoflavones and the like, and the adsorption by unlabeled S-equol in the competitive reaction were measured from when the concentrations of these substances were 0 to when the concentrations of these substances were added in excess amounts. Each of the thus-obtained measured values was checked against a standard curve obtained from the dilution series of the standard antigen (S-equol), so as to compare the inhibition of the reaction based on each calculated value. Thereby, the concentration (IC20) of each of the isoflavones and the like, as well as the concentration (IC20) of unlabeled S-equol, at which the binding reaction of labeled S-equol to the anti-equol antibody is inhibited by 20%, were determined.
# The competitive reaction was performed using competitive ELISA by a procedure similar to that in Example 1. Further, horseradish peroxidase was used as a labeling substance.
# The ratio (expressed in percentage) of the thus-obtained concentration of each of the isoflavones and the like to the thus-obtained concentration of unlabeled S-equol was regarded as the cross-reactivity. […]
# [2] = tested on: Labmaster Equol TR-FIA; test: Cross-reactivity of the known kit Labmaster Equol TR-FIA; format: binding; conditions: with daidzein
# Excerpt: Further, for example, when Labmaster Equol TR-FIA, which is a heretofore known kit manufactured by Labmaster, is used, the cross-reactivity rate with daidzein is 0.8% (see labmaster.fi/products/tr-fia-kitS-equol-tr-fia.htm), and the cross-reactivity of the kit is 10 times as high as that of the present kit.
# [3] = tested on: Labmaster Equol TR-FIA; conditions: heretofore known kit; cited from earlier work
# [4] = tested on: monoclonal antibody; conditions: Clinical Chemistry 53: 748-756, 2007; cited from earlier work
SMILES,Cross-reactivity Rate [1],other results
O=c1cc(-c2ccc(O)cc2)oc2cc(O)cc(O)c12 [Apigenin],0.00%,–
COc1ccc(-c2coc3cc(O)cc(O)c3c2=O)cc1 [Biochanin A],0.11%,–
O=c1c(-c2ccc(O)cc2)coc2cc(O)ccc12 [Daidzein],0.08%,Cross-reactivity Rate ([1]; listed as daidzein): 0.08%; cross-reactivity of the Labmaster kit relative to the present kit [2]: 10 times; Cross-reactivity Rate [3]: 0.8%; Cross-reactivity Rate [4]: < 0.04%
O=c1c(-c2ccc(O)cc2)coc2cc(O[C@@H]3O[C@H](CO)[C@@H](O)[C@H](O)[C@H]3O)ccc12 [Daidzin],0.06%,Cross-reactivity Rate ([1]; listed as daidzin): 0.06%
Oc1ccc(C2=Cc3ccc(O)cc3OC2)cc1 [Dehydroequol],0.33%,Cross-reactivity Rate ([1]; listed as dehydroequol): 0.33%; Cross-reactivity Rate [3]: 42.3%
O=C1c2ccc(O)cc2OCC1c1ccc(O)cc1 (centres unmarked) [Dihydrodaizein],1.03%,Cross-reactivity Rate ([1]; listed as dihydrodaidzein): 1.03%; Cross-reactivity Rate [3]: 4.0%
O=c1c(-c2ccc(O)cc2)coc2cc(O)cc(O)c12 [Genistein],0.05%,–
O=c1c(-c2ccc(O)cc2)coc2cc(O[C@@H]3O[C@H](CO)[C@@H](O)[C@H](O)[C@H]3O)cc(O)c12 [Genistin],0.06%,–
COc1cc2c(=O)c(-c3ccc(O)cc3)coc2cc1O [Glycitein],0.03%,–
COc1cc2c(=O)c(-c3ccc(O)cc3)coc2cc1O[C@@H]1O[C@H](CO)[C@@H](O)[C@H](O)[C@H]1O [Glycitin],0.02%,–
O=c1cc(-c2ccc(O)c(O)c2)oc2cc(O)cc(O)c12 [Luteolin],0.00%,–
Oc1ccc([C@@H]2COc3cc(O)ccc3C2)cc1 [R-Equol],13.24%,Cross-reactivity Rate ([1]; listed as R-equol): 13.24%
Oc1ccc([C@H]2COc3cc(O)ccc3C2)cc1 [S-Equol],100.00%,–
